Laboratory results from ChEMBL document CHEMBL5214999, “Identification and Optimization of a Ligand-Efficient Benzoazepinone Bromodomain and Extra Terminal (BET) Family Acetyl-Lysine Mimetic into the Oral Candidate Quality Molecule I-BET432” (J Med Chem, 2022).
Converted amounts (≈) assume the structure as drawn.

Columns and labels:
[1] = molecular target: T1, Bromodomain-containing protein 4 (Homo sapiens, UniProt O60885); assay: Inhibition of BRD4 BD2 (unknown origin) measured by TR-FRET assay
[2] = molecular target: T1, Bromodomain-containing protein 4; assay: Inhibition of BRD4 BD1 (unknown origin) measured by TR-FRET assay
C-C motif chemokine 2 = C-C motif chemokine 2 (Homo sapiens, UniProt P13500); assay: Inhibition of MCP-1 in LPS-stimulated human whole blood incubate for 24 hrs by immuno assay; assay type: tissue-based
C-C motif chemokine 2, sequence (P13500 whole entry): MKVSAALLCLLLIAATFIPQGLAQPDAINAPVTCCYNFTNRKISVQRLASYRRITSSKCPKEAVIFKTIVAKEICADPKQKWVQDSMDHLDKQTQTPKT

[3] = Lipophilicity, logD of compound at pH 7.4 by Chromatography; assay type: physicochemical; conditions: buffer
[4] = Artificial membrane permeability of the compound; assay type: ADME; conditions: PAMPA; read-out: permeability
[5] = Solubility of the compound in saline by CLND method; assay type: physicochemical
[6] = Intrinsic clearance in rat hepatocytes after 60 mins by LC-MS/MS analysis; assay type: ADME, cell-based, Hepatocyte; conditions: 1 h
[7] = Intrinsic clearance in dog hepatocytes incubated upto 45 mins by LC-MS/MS analysis; assay type: ADME, cell-based, Canis lupus familiaris, Hepatocyte; conditions: 0.75 h
[8] = Intrinsic clearance in human hepatocytes measured after 120 mins by LC-MS/MS analysis; assay type: ADME, cell-based, Hepatocyte; conditions: 2 h

SMILES	IC50 [1]	IC50 [2]	IC50 (C-C motif chemokine 2)	chromatographic logD [3]	Papp [4]	solubility kinetic [5]	CLH [6]	CLH [7]	CLH [8]
C[C@H]1C(=O)N(C)C=C(c2cnn(C)c2)c2cc(C(CO)CO)ccc21	100 nM	31.6 nM	31.6 nM	1.4	< 0.3 ×10⁻⁶ cm/s	≥ 208 µg/mL			
C[C@H]1C(=O)N(C)C=Cc2cc(C(O)CO)ccc21 (some centres not stated)	2000 nM	398 nM	1000 nM	1.1	2.7 ×10⁻⁶ cm/s	≥ 101 µg/mL			
C[C@H]1C(=O)N(C)C=Cc2cc(OC(CO)CO)ccc21	1260 nM	398 nM	631 nM	1.3	4.2 ×10⁻⁶ cm/s	≥ 142 µg/mL			
CCOc1ccc2c(c1)C(c1cn[nH]c1)=CN(C)C(=O)[C@@H]2C	3.98 nM	6.31 nM	25.1 nM	3.4	37 ×10⁻⁶ cm/s	≥ 115 µg/mL			
C[C@H]1C(=O)N(C)C=Cc2cc(CCO)ccc21	1580 nM	398 nM	1000 nM	2.6	24 ×10⁻⁶ cm/s	≥ 108 µg/mL			
Cc1cc(-c2ccccc2)cn(C)c1=O	10000 nM	3160 nM							
C[C@H]1C(=O)N(C)C=Cc2ccccc21 (racemic)	5010 nM	1580 nM	5010 nM	4.3	100 ×10⁻⁶ cm/s	≥ 86 µg/mL			
CC1C(=O)N(C)C=Cc2cc(OCC(C)(C)O)ccc21 (racemic)	794 nM	251 nM	631 nM	3.6	74 ×10⁻⁶ cm/s	≥ 131 µg/mL			
CCS(=O)(=O)c1ccc2c(c1)C(c1cnn(C)c1)=CN(C)C(=O)[C@@H]2C	79.4 nM	39.8 nM	39.8 nM	2.8	14.5 ×10⁻⁶ cm/s	≥ 222 µg/mL	2.44 mL/min/g	< 0.65 mL/min/g	< 0.45 mL/min/g
C[C@H]1C(=O)N(C)C=Cc2cc(CC3CCOCC3)ccc21	316 nM	63.1 nM	631 nM	5.4	71 ×10⁻⁶ cm/s	≥ 111 µg/mL			
CCOc1ccc2c(c1)C(c1cc[nH]n1)=CN(C)C(=O)C2C (racemic)	20 nM	31.6 nM	126 nM	3.8	54 ×10⁻⁶ cm/s	≥ 99 µg/mL			
CCS(=O)(=O)c1ccc2c(c1)C(c1ccncc1)=CN(C)C(=O)C2C (racemic)	1580 nM	631 nM	1260 nM	2.8	35 ×10⁻⁶ cm/s	128 µg/mL (≈ 359 µM)			
CC(=O)N1CCCc2ccccc21	126000 nM	251000 nM							
Cc1nc(C2=CN(C)C(=O)[C@H](C)c3ccc(OCCO)cc32)c[nH]1	31.6 nM	20 nM	39.8 nM	1.5	< 0.3 ×10⁻⁶ cm/s	≥ 185 µg/mL			
C[C@H]1C(=O)N(C)C=Cc2cc(CN3CCCC3)ccc21	7940 nM	501 nM	1580 nM	1.5	36 ×10⁻⁶ cm/s	≥ 97 µg/mL			
COCCOc1ccc2c(c1)C=CN(C)C(=O)[C@@H]2C	794 nM	316 nM	1000 nM	4	84 ×10⁻⁶ cm/s	≥ 128 µg/mL			
COc1cc2c(cc1OC)CC(=O)N(C)C=C2	10000 nM	2000 nM		2.6					
COc1ccc2c(c1)C=CN(C)C(=O)[C@@H]2C	1580 nM	631 nM		4.3	88 ×10⁻⁶ cm/s				

SMILES	IC50 [1]	IC50 [2]	IC50 (C-C motif chemokine 2)	chromatographic logD [3]	Papp [4]	solubility kinetic [5]	CLH [6]	CLH [7]	CLH [8]
COc1cc2c(cc1OC)[C@@H](C)C(=O)N(C)CC2	15800 nM	3980 nM		2.6					
Cc1nnc(C)n1-c1ccccc1	> 50100 nM	> 50100 nM							
CCOc1ccc2c(c1)C(c1c[nH]c(C)n1)=CN(C)C(=O)[C@@H]2C	20 nM	12.6 nM	15.8 nM	3.1	40 ×10⁻⁶ cm/s	≥ 135 µg/mL			
COc1cc2c(cc1OC)[C@H](C)C(=O)N(C)C=C2	50100 nM	12600 nM		3.4					
COc1cc2c(cc1OC)[C@H](C)C(=O)N(C)CC2	158000 nM	63100 nM		2.5					
CCOc1ccc2c(c1)C(c1cnn(C)c1)=CN(C)C(=O)[C@@H]2C	7.94 nM	10 nM	20 nM	4.1	57 ×10⁻⁶ cm/s	143 µg/mL (≈ 459 µM)	72.36 mL/min/g	< 0.65 mL/min/g	9.14 mL/min/g
CCOc1ccc2c(c1)C(c1cn(C)cn1)=CN(C)C(=O)[C@@H]2C	25.1 nM	31.6 nM	50.1 nM	3.6	69 ×10⁻⁶ cm/s	117 µg/mL (≈ 376 µM)			
CCOc1ccc2c(c1)C=CN(C)C(=O)C2C (racemic)	1000 nM	501 nM	3160 nM	5	70 ×10⁻⁶ cm/s	≥ 120 µg/mL			
CCS(=O)(=O)c1ccc2c(c1)C(c1ccccc1)=CN(C)C(=O)C2C (racemic)	501 nM	251 nM	1580 nM	5.1	100 ×10⁻⁶ cm/s	≥ 146 µg/mL			
CCS(=O)(=O)c1ccc2c(c1)C(C(N)=O)=CN(C)C(=O)[C@@H]2C	3160 nM	1580 nM	2000 nM	1.1	1 ×10⁻⁶ cm/s	82 µg/mL (≈ 254 µM)			
CCS(=O)(=O)c1ccc2c(c1)C(C)=CN(C)C(=O)[C@@H]2C	251 nM	79.4 nM	158 nM	3.4	15 ×10⁻⁶ cm/s	≥ 131 µg/mL	1.18 mL/min/g	0.77 mL/min/g	< 0.45 mL/min/g
Cc1noc(C)c1-c1ccccc1	158000 nM	50100 nM							
CCS(=O)(=O)c1ccc2c(c1)C=CN(C)C(=O)[C@@H]2C (racemic)	1260 nM	200 nM	398 nM	3.1	42 ×10⁻⁶ cm/s				
CCOc1ccc2c(c1)C(c1c[nH]cn1)=CN(C)C(=O)[C@@H]2C	10 nM	10 nM	50.1 nM	2.7	46 ×10⁻⁶ cm/s	≥ 131 µg/mL			
CCOc1ccc2c(c1)C(n1ccnc1)=CN(C)C(=O)C2C (racemic)	25100 nM	39800 nM		4.3	58 ×10⁻⁶ cm/s	≥ 65 µg/mL			
CCc1ccc2c(c1)C=CN(C)C(=O)[C@@H]2C	631 nM	200 nM		5.9	73 ×10⁻⁶ cm/s				
COC[C@@H](C)n1c(C2CCOCC2)nc2cnc3cc(-c4c(C)noc4C)c(OC)cc3c21	126 nM	39.8 nM							
C[C@H]1C(=O)N(C)C=Cc2cc(C(CO)CO)ccc21	2000 nM	398 nM	631 nM	1.2	3 ×10⁻⁶ cm/s	≥ 209 µg/mL			
